From ChEMBL document CHEMBL4665624, “Synthesis of 5-(4-(1H-phenanthro[9,10-d]imidazol-2-yl)benzylidene)thiazolidine-2,4-dione as promising DNA and serum albumin-binding agents and evaluation of antitumor activity” (Eur J Med Chem, 2019)
The source made the active and inactive calls. No cut-off for these calls is given here.

Legend:
SF-268 = assay: Antitumor activity against human SF268 cells assessed as cell growth inhibition at 10 uM incubated for 48 hrs by sulforhodamine B assay; type: functional; conditions: read-out: GI
786-0 = assay: Antitumor activity against human 786-0 cells assessed as cell growth inhibition at 10 uM incubated for 48 hrs by sulforhodamine B assay; type: functional; conditions: read-out: GI
NCI-H460 = assay: Antitumor activity against human NCI-H460 assessed as cell growth inhibition at 10 uM incubated for 48 hrs by sulforhodamine B assay; type: functional; conditions: read-out: GI
COLO 205 = assay: Antitumor activity against human COLO205 cells assessed as cell growth inhibition at 10 uM incubated for 48 hrs by sulforhodamine B assay; type: functional; conditions: read-out: GI
NCI/ADR-RES = assay: Antitumor activity against human NCI/ADR-RES cells assessed as cell growth inhibition at 10 uM incubated for 48 hrs by sulforhodamine B assay; type: functional; conditions: read-out: GI
SNB-19 = assay: Antitumor activity against human SNB-19 cells assessed as cell growth inhibition at 10 uM incubated for 48 hrs by sulforhodamine B assay; type: functional; conditions: read-out: GI
Albumin [1] = biological target: T1, Albumin (Homo sapiens, UniProt P02768); assay: Binding affinity to human serum albumin assessed as appearance of new absorption band at 400 nm at 0-7 uM by UV-Vis absorption spectroscopy; type: ADME, cell-free; conditions: 0.4 µM
T1 sequence (P02768 whole entry): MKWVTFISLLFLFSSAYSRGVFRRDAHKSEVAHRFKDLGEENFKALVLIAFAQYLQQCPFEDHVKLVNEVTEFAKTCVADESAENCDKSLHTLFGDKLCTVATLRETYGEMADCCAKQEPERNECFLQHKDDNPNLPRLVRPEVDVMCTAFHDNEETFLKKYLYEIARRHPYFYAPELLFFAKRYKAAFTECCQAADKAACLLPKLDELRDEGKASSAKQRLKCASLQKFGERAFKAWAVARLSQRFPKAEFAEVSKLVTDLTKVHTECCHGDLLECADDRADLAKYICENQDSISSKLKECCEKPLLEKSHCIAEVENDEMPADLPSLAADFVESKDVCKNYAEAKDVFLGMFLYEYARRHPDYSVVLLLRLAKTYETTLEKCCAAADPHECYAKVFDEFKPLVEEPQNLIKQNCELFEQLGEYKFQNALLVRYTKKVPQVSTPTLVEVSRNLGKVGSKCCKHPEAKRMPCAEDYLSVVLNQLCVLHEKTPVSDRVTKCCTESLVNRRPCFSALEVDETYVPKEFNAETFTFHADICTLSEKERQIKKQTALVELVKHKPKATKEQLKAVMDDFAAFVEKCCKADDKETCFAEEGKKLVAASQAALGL

Albumin [2] = biological target: T2, Albumin (Bos taurus, UniProt P02769); assay: Binding affinity to bovine serum albumin assessed as hydrophobic interaction by measuring change in entropy at 298K by thermodynamic based analysis; type: ADME, cell-free; conditions: cattle
T2 sequence (P02769 whole entry): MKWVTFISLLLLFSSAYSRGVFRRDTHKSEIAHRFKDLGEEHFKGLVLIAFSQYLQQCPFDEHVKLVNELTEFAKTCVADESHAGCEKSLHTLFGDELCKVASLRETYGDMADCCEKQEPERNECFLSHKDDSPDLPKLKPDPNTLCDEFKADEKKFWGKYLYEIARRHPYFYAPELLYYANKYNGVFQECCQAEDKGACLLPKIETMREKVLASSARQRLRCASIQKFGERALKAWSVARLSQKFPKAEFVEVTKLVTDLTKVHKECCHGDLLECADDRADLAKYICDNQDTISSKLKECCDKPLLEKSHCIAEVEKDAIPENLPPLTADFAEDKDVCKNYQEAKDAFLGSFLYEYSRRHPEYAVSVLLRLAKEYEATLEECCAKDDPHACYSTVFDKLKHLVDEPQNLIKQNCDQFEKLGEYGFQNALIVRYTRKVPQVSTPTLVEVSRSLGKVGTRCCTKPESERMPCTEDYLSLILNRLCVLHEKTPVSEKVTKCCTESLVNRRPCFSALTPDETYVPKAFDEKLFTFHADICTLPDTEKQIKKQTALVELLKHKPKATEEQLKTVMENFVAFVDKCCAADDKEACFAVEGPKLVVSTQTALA

Calf thymus DNA [3] = assay: Binding affinity to calf thymus DNA assessed as hypochromic effect by measuring decrease in intensity of absorption band at 398 nm at 20 uM by UV-Vis absorption spectrophotometric method; conditions: Bos taurus
Calf thymus DNA [4] = assay: Binding affinity to minor groove of calf thymus DNA assessed as ICD band intensity between 350 and 400 nm at 1 uM by CD spectroscopy; type: nucleic-acid assay; conditions: Bos taurus
HEK293 [5] = assay: Cytotoxicity against human HEK293 assessed as reduction in cell viability at 10 uM after 48 hrs by MTT assay; type: cell-based; conditions: hek293, 48 h
Albumin [6] = biological target: T1, Albumin; assay: Binding affinity to human serum albumin assessed as increase in peak absorption intensity at 280 nm at 0-7 uM by UV-Vis absorption spectroscopy; type: ADME, cell-free; conditions: 0.28 µM
Albumin [7] = biological target: T2, Albumin; assay: Binding affinity to bovine serum albumin assessed as binding constant by UV-vis absorption spectral titration analysis based Benesi-Hildebrand equation analysis; type: ADME, cell-free; conditions: cattle
CCRF-CEM = assay: Antitumor activity against human CCRF-CEM cells assessed as cell growth inhibition at 10 uM incubated for 48 hrs by sulforhodamine B assay; type: functional; conditions: read-out: GI
OVCAR-3 = assay: Antitumor activity against human OVCAR-3 cells assessed as cell growth inhibition at 10 uM incubated for 48 hrs by sulforhodamine B assay; type: functional; conditions: read-out: GI
Albumin [8] = biological target: T2, Albumin; assay: Binding affinity to bovine serum albumin assessed as spontaneous interaction by measuring change in gibbs free energy at 298K by thermodynamic based analysis; type: ADME, cell-free; conditions: cattle
DNA [9] = assay: Binding affinity to human DNA in blood assessed as DNA intercalation by measuring increase in fluorescence emission intensity at 498 nm at 20 uM by fluorescence emission spectral analysis; type: tissue-based
A549 [10] = assay: Cytotoxicity against human A549/ATCC assessed as reduction in cell viability at 1 uM after 48 hrs by MTT assay; type: functional
KM12 = assay: Antitumor activity against human KM12 cells assessed as cell growth inhibition at 10 uM incubated for 48 hrs by sulforhodamine B assay; type: functional; conditions: read-out: GI
Albumin [11] = biological target: T2, Albumin; assay: Binding affinity to bovine serum albumin assessed as binding constant at 308K by fluorescence emission spectrum analysis; type: ADME, cell-free; conditions: cattle
Albumin [12] = biological target: T2, Albumin; assay: Binding affinity to bovine serum albumin assessed as Stern-Volmer quenching constant at 318K by fluorescence emission spectrum analysis; type: ADME, cell-free; conditions: cattle
HEK293 [13] = assay: Cytotoxicity against human HEK293 assessed as reduction in cell viability at 0.1 uM after 48 hrs by MTT assay; type: cell-based; conditions: hek293, 48 h
Albumin [14] = biological target: T2, Albumin; assay: Binding affinity to bovine serum albumin assessed as quenching constant at 308K by fluorescence emission spectrum analysis; type: ADME, cell-free; conditions: cattle
PC-3 = assay: Antitumor activity against human PC-3 cells assessed as cell growth inhibition at 10 uM incubated for 48 hrs by sulforhodamine B assay; type: functional; conditions: read-out: GI
UACC-62 = assay: Antitumor activity against human UACC-62 cells assessed as cell growth inhibition at 10 uM incubated for 48 hrs by sulforhodamine B assay; type: functional; conditions: read-out: GI
RPMI-8226 = assay: Antitumor activity against human RPMI8226 cells assessed as cell growth inhibition at 10 uM incubated for 48 hrs by sulforhodamine B assay; type: functional; conditions: read-out: GI
BT-549 = assay: Antitumor activity against human BT-549 cells assessed as cell growth inhibition at 10 uM incubated for 48 hrs by sulforhodamine B assay; type: functional; conditions: read-out: GI
HEK293 [15] = assay: Cytotoxicity against human HEK293 assessed as reduction in cell viability at 0.01 uM after 48 hrs by MTT assay; type: cell-based; conditions: hek293, 48 h
Calf thymus DNA [16] = assay: Binding affinity to calf thymus DNA assessed as bimolecular quenching constant by ethidium bromide competitive displacement assay; type: nucleic-acid assay; conditions: Bos taurus
SK-OV-3 = assay: Antitumor activity against human SK-OV-3 cells assessed as cell growth inhibition at 10 uM incubated for 48 hrs by sulforhodamine B assay; type: functional; conditions: read-out: GI
DNA [17] = assay: Binding affinity to human DNA in blood assessed as DNA intercalation by measuring binding constant by UV-Vis spectral titration analysis; type: tissue-based
OVCAR-4 = assay: Antitumor activity against human OVCAR-4 cells assessed as cell growth inhibition at 10 uM incubated for 48 hrs by sulforhodamine B assay; type: functional; conditions: read-out: GI
HL-60(TB) = assay: Antitumor activity against human HL-60(TB) cells assessed as cell growth inhibition at 10 uM incubated for 48 hrs by sulforhodamine B assay; type: functional; conditions: read-out: GI
Calf thymus DNA [18] = assay: Binding affinity to calf thymus DNA assessed as quenching in emission band at 600 nm by ethidium bromide competitive displacement assay; type: nucleic-acid assay; conditions: Bos taurus
LOX IMVI = assay: Antitumor activity against human LOX IMVI cells assessed as cell growth inhibition at 10 uM incubated for 48 hrs by sulforhodamine B assay; type: functional; conditions: read-out: GI
UO-31 = assay: Antitumor activity against human UO-31 cells assessed as cell growth inhibition at 10 uM incubated for 48 hrs by sulforhodamine B assay; type: functional; conditions: read-out: GI
Albumin [19] = biological target: T2, Albumin; assay: Binding affinity to bovine serum albumin assessed as spontaneous interaction by measuring change in gibbs free energy at 308K by thermodynamic based analysis; type: ADME, cell-free; conditions: cattle
Calf thymus DNA [20] = assay: Binding affinity to calf thymus DNA (unknown origin) assessed as binding constant by ethidium bromide competitive displacement assay; type: nucleic-acid assay; conditions: Bos taurus
DNA [21] = assay: Binding affinity to human DNA in blood assessed as binding constant by fluorescence emission spectrum analysis; type: tissue-based
DNA [22] = assay: Binding affinity to human DNA in blood assessed as DNA intercalation by measuring hypochromic shift at 398 nm at 20 uM by UV-Vis spectral titration analysis; type: tissue-based
A549 [23] = assay: Cytotoxicity against human A549/ATCC assessed as reduction in cell viability after 48 hrs by MTT assay; type: functional, cell-based; conditions: A549, 48 h
Calf thymus DNA [24] = assay: Binding affinity to calf thymus DNA assessed as DNA intercalation by measuring increase in intensity of CD band at 281 nm at 1 uM by CD spectroscopy; type: nucleic-acid assay; conditions: Bos taurus
Albumin [25] = biological target: T1, Albumin; assay: Binding affinity to human serum albumin assessed as Stern-Volmer quenching constant by fluorescence emission spectroscopy; type: ADME, cell-free

Question: For `O=C1NC(=O)/C(=C/c2ccc(-c3nc4c5ccccc5c5ccccc5c4[nH]3)cc2)S1`, which inhibition of growth at 10 µM (SF-268) is on record?
Answer: 12.3%

Question: And the inhibition of growth at 10 µM (786-0)?
Answer: 48%

Question: And the inhibition of growth at 10 µM (NCI-H460)?
Answer: 19.7%

Question: And the inhibition of growth at 10 µM (COLO 205)?
Answer: < 10%

Question: And the inhibition of growth at 10 µM (NCI/ADR-RES)?
Answer: < 10%

Question: What about the inhibition of growth at 10 µM (SNB-19) of the same molecule?
Answer: 18.1%

Question: And the Activity (Albumin [1])?
Answer: Active

Question: What about the deltaS (Albumin [2]) of the same molecule?
Answer: 20.43 cal/mol.K

Question: What about the Activity (Calf thymus DNA [3]) of the same molecule?
Answer: Active

Question: And the Activity (Calf thymus DNA [4])?
Answer: inactive

Question: And the Activity (HEK293 [5])?
Answer: 9%

Question: What about the Activity (Albumin [6]) of the same molecule?
Answer: Active

Question: What about the Kb (Albumin [7]) of the same molecule?
Answer: 6.57 10^4/M

Question: And the inhibition of growth at 10 µM (CCRF-CEM)?
Answer: 65.2%

Question: And the inhibition of growth at 10 µM (OVCAR-3)?
Answer: 21.3%

Question: What about the deltaG (Albumin [8]) of the same molecule?
Answer: -9 kcal/mol

Question: What about the Activity (DNA [9]) of the same molecule?
Answer: Active

Question: And the Activity (A549 [10])?
Answer: 75%

Question: What about the inhibition of growth at 10 µM (KM12) of the same molecule?
Answer: 43.9%

Question: What about the Kb (Albumin [11]) of the same molecule?
Answer: 3.56 10^6/M

Question: And the KSV (Albumin [12])?
Answer: 3.51 10^5/M

Question: What about the Activity (HEK293 [13]) of the same molecule?
Answer: 5%

Question: And the Kq (Albumin [14])?
Answer: 8.15 10^13/M/sec

Question: And the inhibition of growth at 10 µM (PC-3)?
Answer: 51.9%

Question: And the inhibition of growth at 10 µM (UACC-62)?
Answer: 30.3%

Question: What about the inhibition of growth at 10 µM (RPMI-8226) of the same molecule?
Answer: 66.1%

Question: What about the inhibition of growth at 10 µM (BT-549) of the same molecule?
Answer: 63.7%

Question: And the Activity (HEK293 [15])?
Answer: 4%

Question: What about the Kq (Calf thymus DNA [16]) of the same molecule?
Answer: 6.53 10^12/M/s

Question: What about the inhibition of growth at 10 µM (SK-OV-3) of the same molecule?
Answer: < 10%

Question: And the Kb (DNA [17])?
Answer: 5.24 10^4/M

Question: What about the inhibition of growth at 10 µM (OVCAR-4) of the same molecule?
Answer: < 10%

Question: What about the inhibition of growth at 10 µM (HL-60(TB)) of the same molecule?
Answer: 57.7%

Question: And the Activity (Calf thymus DNA [18])?
Answer: Active

Question: And the inhibition of growth at 10 µM (LOX IMVI)?
Answer: 36.7%

Question: What about the inhibition of growth at 10 µM (UO-31) of the same molecule?
Answer: 25.5%

Question: And the deltaG (Albumin [19])?
Answer: -9.21 kcal/mol

Question: What about the Kb (Calf thymus DNA [20]) of the same molecule?
Answer: 1 10^5/M

Question: And the Kb (DNA [21])?
Answer: 7.09 10^5/M

Question: And the Activity (DNA [22])?
Answer: Active

Question: And the IC50 (A549 [23])?
Answer: 1700 nM

Question: And the Activity (Calf thymus DNA [24])?
Answer: Active

Question: What about the KSV (Albumin [25]) of the same molecule?
Answer: 3.01 10^6/M
